Earlier results on 1 molecule are cited in US20240409566A1, “DELIVERY OF THERAPEUTIC ALKALOID COMPOUNDS” (priority 2022, published 2024).

The data set deals with 5-HT transporter (SERT) (Homo sapiens (Human), UniProt P31645). Particulars: cited from earlier work.

In general, Ki refers to the dissociation constant of the complex between target and ligand, obtained from inhibition or displacement. For the molecule `COc1ccc(C23C=CC(O)CC2N(C)CC3)cc1OC` (centres unmarked) [Mesembrenol], the “nH, 5-HT transporter (SERT)” value (Hill coefficient of concentration response curves) was 1.1. Further, the Ki (concentration response curves, binding) was 62 nM.
